Reference: ChEMBL document CHEMBL5653593 (Clin Sci (Lond), 2002)

Tests used:
[1] = target: T1, Endothelin receptor type B (Homo sapiens, UniProt P24530); assay: Antagonist activity at human ETB receptor transfected in CHO cell membrane […]; type: functional, cell membranes
T1 sequence (P24530 whole entry): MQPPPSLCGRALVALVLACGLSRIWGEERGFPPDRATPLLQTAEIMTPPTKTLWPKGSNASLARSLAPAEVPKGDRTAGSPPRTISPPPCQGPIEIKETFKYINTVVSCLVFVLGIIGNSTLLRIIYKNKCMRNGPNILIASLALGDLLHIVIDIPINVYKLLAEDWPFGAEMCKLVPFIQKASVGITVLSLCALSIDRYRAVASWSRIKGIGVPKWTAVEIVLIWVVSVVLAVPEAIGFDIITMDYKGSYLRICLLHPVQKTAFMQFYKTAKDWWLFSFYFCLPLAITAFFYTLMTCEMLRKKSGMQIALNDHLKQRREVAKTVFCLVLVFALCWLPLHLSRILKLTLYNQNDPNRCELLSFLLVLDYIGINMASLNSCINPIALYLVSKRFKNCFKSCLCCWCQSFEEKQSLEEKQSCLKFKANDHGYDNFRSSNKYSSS

[2] = target: T1, Endothelin receptor type B; assay: Binding affinity to human ETB receptor transfected in CHO cell membrane assessed as inhibition constant incubated for 3 hrs by 125I-labelled ET-1 saturation binding assay; type: cell membranes
[3] = target: T2, Endothelin-1 receptor (Rattus norvegicus, UniProt P26684); assay: Antagonist activity at ETA receptor in rat MMQ cells assessed as inhibition of phosphatidylinositol hydrolysis by myo-[3H]inositol radioactivity based assay; type: functional, cell-based
T2 sequence (P26684 whole entry): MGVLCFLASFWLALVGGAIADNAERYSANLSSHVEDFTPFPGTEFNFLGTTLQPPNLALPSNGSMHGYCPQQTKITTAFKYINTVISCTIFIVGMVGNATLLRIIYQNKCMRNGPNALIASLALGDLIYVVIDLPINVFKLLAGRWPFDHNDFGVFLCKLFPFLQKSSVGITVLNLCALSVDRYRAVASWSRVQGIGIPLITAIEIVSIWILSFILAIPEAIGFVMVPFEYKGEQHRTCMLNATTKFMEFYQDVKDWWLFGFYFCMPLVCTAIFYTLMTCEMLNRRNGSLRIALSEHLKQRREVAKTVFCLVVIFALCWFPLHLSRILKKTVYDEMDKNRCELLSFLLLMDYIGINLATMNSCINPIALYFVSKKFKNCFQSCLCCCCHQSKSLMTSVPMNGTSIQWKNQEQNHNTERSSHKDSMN

[4] = target: T3, Endothelin-1 receptor (Homo sapiens, UniProt P25101); assay: Binding affinity to human ETA receptor transfected in CHO cell membrane assessed as inhibition constant incubated for 3 hrs by 125I-labelled ET-1 saturation binding assay; type: cell membranes
T3 sequence (P25101 whole entry): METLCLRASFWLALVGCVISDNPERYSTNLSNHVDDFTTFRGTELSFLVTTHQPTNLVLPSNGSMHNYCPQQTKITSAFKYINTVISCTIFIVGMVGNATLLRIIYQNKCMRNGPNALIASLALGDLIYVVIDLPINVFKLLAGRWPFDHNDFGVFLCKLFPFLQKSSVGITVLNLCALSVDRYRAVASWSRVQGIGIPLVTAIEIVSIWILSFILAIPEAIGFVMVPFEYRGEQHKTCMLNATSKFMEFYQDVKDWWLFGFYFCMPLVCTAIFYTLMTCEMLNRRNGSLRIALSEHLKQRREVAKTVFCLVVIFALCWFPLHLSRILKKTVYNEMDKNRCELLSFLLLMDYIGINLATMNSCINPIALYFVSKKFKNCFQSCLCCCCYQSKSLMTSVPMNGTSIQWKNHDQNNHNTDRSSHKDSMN

[5] = target: T3, Endothelin-1 receptor; assay: Antagonist activity at human ETA receptor transfected in CHO cell membrane assessed as inhibition of 125I-labelled ET-1 binding to receptor incubated for 3 hrs by competition binding assay; type: functional, cell membranes

IC50 [1] [nM]	Ki [2] [nM]	IC50 [3] [nM]	Ki [4] [nM]	IC50 [5] [nM]	Structure (SMILES)
1.12	1.23	–	–	–	CCCCCS(=O)(=O)N(CCC)CCN1C[C@H](c2ccc3c(c2)OCO3)[C@@H](C(=O)O)[C@@H]1c1ccc(OC)c(F)c1
0.59	–	≥ 700	5600	4280	CCCOc1ccc([C@H]2[C@H](C(=O)O)[C@@H](c3ccc4c(c3)OCO4)CN2CC(=O)Nc2c(CC)cccc2CC)cc1 [A-192621]
–	–	0.59	–	–	CCCCN(CCCC)C(=O)CN1C[C@H](c2cc(OC)c3c(c2)OCO3)[C@@H](C(=O)O)[C@@H]1CC(C)(C)CCC [ABT-546]
